We go through 27 compounds from patent US7109220B2, “Amino substituted pyridinyl methanone compounds useful in treating kinase disorders” (Janssen Pharmaceutica N.V., priority 2003, dated 2006).

For one test, the target named is T1, VEGF-R2 kinase (Rattus norvegicus, UniProt O08775).
T1 construct: polyhistidine (N)
Nature of the test: VEGF-R2 Kinase Screening Assay. The conditions noted are these: soluble rat VEGF-R2 kinase, 10 μM ATP; read-out: VEGF-R IC50. The format is biochemical. The protocol: A kinase reaction mixture was prepared containing 50 mM Tris-HCl pH=8, 10 mM MgCl2, 0.1 mM Na3PO4, 1 mM DTT, 10 μM ATP, 0.025 uM biotinylated peptide substrate and 0.8 μCuries per well^33P-γ-ATP [2000–3000 Ci/mmol]. 70 μL of the kinase reaction mixture was dispensed into the well of a streptavidin coated FlashPlate™ (Cat. #SMP103, NEN, Boston, Mass.). 1 μL of test compound stock in 100% DMSO was added to the wells resulting in a final concentration of 1% DMSO in the mixture with a 100 μL final reaction volume. Soluble rat VEGF-R2 kinase^3 was diluted in 50 mM Tris-HCl pH=8.0, 0.1% BSA at a concentration of 5 ng per microliter and 30 μL (150 ng enzyme per test well) was added to each well to initiate the reaction. The reaction was incubated for one hour at 30° C. At the end of the 1-hour incubation, the reaction was terminated by aspirating the reaction mixture from the plate and washing the wells twice with PBS containing 100 mM EDTA. The PLC1 biotinylated peptide substrate became immobilized on the Flashplate™ and the incoporation of ^33P-γ-ATP was measured by reading the plate on a scintillation counter. Inhibition of the enzymatic activity of the VEGF-R was measured by observing a reduced amount of ^33P-γ-ATP incorporated into the immobilized peptide. ^3VEGF-R2 kinase (Vascular Endothelial Growth Factor Receptor-2): a fusion protein containing a polyhistidine tag at the N-terminus followed by amino acids 786–1343 of the rat VEGF-R2 kinase domain GenBank Accession #U93306); Peptide Substrate (Biotin)KHKKLAEGSAYEEV-Amide
(§1) IC50 values listed as >10 or >100 indicate no observed 50% inhibition at the highest dose tested, nor was an inhibition maximum observed.

The target of a further test is T2, CDK1:Cyclin-B (Homo sapiens, UniProt P06493).
T2 construct: purchased New England Biolabs, Beverly, Mass; (CDK1); BIOMOL, Plymouth Meeting, Pa; (Cyclin-B) #6020 (CDK1); #SE-195 (Cyclin-B); host or cells: insect cells
T2 sequence (P06493 whole entry): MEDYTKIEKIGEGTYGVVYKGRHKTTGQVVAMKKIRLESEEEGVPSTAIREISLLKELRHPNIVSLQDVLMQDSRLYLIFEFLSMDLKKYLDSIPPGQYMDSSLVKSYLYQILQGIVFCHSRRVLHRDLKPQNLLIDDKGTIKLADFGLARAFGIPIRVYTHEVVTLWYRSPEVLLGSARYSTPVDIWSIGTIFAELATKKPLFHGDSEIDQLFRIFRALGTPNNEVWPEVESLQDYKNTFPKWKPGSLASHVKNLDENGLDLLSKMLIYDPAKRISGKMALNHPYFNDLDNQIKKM
T2 sequence (P14635 whole entry partner): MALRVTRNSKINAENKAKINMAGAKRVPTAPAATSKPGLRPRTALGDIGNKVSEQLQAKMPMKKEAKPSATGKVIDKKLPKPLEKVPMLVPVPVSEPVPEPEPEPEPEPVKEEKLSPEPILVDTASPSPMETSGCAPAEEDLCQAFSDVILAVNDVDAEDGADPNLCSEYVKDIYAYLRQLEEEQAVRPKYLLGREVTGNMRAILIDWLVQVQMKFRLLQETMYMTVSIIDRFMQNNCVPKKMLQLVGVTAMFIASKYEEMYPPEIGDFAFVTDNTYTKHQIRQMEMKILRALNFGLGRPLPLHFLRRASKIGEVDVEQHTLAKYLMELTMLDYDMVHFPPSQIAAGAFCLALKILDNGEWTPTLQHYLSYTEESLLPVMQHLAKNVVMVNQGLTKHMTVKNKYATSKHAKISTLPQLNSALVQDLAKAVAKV
Nature of the test: CDK1 Screening Assay. The format is biochemical. The conditions noted are these: 10 μM ATP, histone-H1 peptide substrate, 1 hour at 30° C. The procedure:
A kinase reaction mixture was prepared containing 50 mM Tris-HCl pH=8, 10 mM MgCl2, 0.1 mM Na3PO4, 1 mM DTT, 10 μM ATP, 0.025 μM biotinylated histone-H1 peptide substrate and 0.2 μCuries per well^33P-γ-ATP [2000–3000 Ci/mmol]. 70 μL of the kinase reaction mixture was dispensed into the well of a streptavidin coated FlashPlate™ (Cat. #SMP103, NEN, Boston, Mass.). Then 1 μL of test compound stock in 100% DMSO was added to the wells resulting in a final concentration of 1% DMSO in the reaction with a 100 μL final reaction volume. CDK1:Cyclin-B protein^1 was diluted in 50 mM Tris-HCl pH=8.0, 0.1% BSA at a concentration of 1 ng per microliter. 30 μL (30 ng enzyme per test well) was added to each well to initiate the reaction, The reaction was incubated for one hour at 30° C. At the end of the 1-hour incubation, the reaction was terminated by aspirating the reaction mixture from the plate and washing the wells twice with PBS containing 100 mM EDTA. The histone-H1 biotinylated peptide substrate became immobilized on the Flashplate™ and the incorporation of ^33P-γ-ATP was measured by reading the plate on a scintillation counter. Inhibition of the enzymatic activity of CDK1 was measured by observing a reduced amount of ^33P-γ-ATP incorporated into the immobilized peptide. ^1CDK1 (cyclin dependent kinase 1) was isolated from insect cells expressing both the human CDK1 catalytic subunit and its positive regulatory subunit Cyclin B (CDK1: New England Biolabs, Beverly, Mass., Cat. #6020; Cyclin-B: BIOMOL, Plymouth Meeting, Pa., Cat. #SE-195); Peptide Substrate (Biotin)KTPKKAKKPKTPKKAKKL-Amide.
as §1

T1 sequence (O08775 786-1343): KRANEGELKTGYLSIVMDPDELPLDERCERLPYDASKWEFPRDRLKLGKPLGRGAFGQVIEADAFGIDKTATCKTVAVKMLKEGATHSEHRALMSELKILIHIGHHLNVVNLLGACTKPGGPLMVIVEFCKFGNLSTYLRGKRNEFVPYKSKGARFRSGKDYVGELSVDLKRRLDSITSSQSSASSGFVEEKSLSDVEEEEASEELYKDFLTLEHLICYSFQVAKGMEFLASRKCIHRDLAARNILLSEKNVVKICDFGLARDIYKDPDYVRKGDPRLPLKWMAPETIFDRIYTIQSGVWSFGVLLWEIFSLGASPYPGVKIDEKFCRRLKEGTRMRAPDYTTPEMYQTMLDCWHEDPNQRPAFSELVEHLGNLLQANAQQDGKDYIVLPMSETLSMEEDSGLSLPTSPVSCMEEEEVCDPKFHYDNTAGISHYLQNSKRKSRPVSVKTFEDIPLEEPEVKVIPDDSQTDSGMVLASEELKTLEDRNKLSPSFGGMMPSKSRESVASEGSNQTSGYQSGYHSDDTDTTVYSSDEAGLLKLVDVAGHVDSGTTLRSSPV

Regarding `CN(C)S(=O)(=O)c1ccc(Nc2ccc(C(=O)c3ccccc3)c(N)n2)cc1` [Cpd 25, 4-[(6-amino-5-benzoyl-2-pyridinyl)amino]-N,N-dimethylbenzenesulfonamide], the IC50 – broadly, the concentration needed to halve the response being measured – at VEGF-R2 kinase is greater than 100 µM.
In the case of `Nc1nc(Nc2ccc(NS(=O)(=O)c3ccccc3)cc2)ccc1C(=O)c1c(F)cccc1F` [Cpd 19, N-[4-[[6-amino-5-(2,6-difluorobenzoyl)-2-pyridinyl]amino]phenyl]benzenesulfonamide], on VEGF-R2 kinase, the IC50 was greater than 10 µM.
Turning to `Nc1nc(Nc2ccccc2[N+](=O)[O-])ccc1C(=O)c1c(F)cccc1F` [Cpd 12, [2-amino-6-[(2-nitrophenyl)amino]-3-pyridinyl](2,6-difluorophenyl)methanone], the IC50 against CDK1:Cyclin-B and on VEGF-R2 kinase was greater than 10 µM throughout.
For the compound `CNc1ccc(Nc2ccc(C(=O)c3c(F)cccc3F)c(N)n2)cc1` [Cpd 18, [2-amino-6-[[4-(methylamino)phenyl]amino]-3-pyridinyl](2,6-difluorophenyl)methanone], the IC50 on VEGF-R2 kinase was greater than 10 µM.
In the case of `CN(C)S(=O)(=O)c1ccc(Nc2ccc(C(=O)c3cccs3)c(N)n2)cc1` [Cpd 29, 4-[[6-amino-5-(2-thienylcarbonyl)-2-pyridinyl]amino]-N,N-dimethylbenzene sulfonamide], on VEGF-R2 kinase, the concentration for half-maximal inhibition (IC50) is greater than 100 µM.
Consider `Nc1nc(Nc2ccccc2NS(=O)(=O)c2ccccc2)ccc1C(=O)c1c(F)cccc1F` [Cpd 23, N-[2-[[6-amino-5-(2,6-difluorobenzoyl)-2-pyridinyl]amino]phenyl]benzenesulfonamide], for which the IC50 against CDK1:Cyclin-B and on VEGF-R2 kinase was greater than 100 µM each time.
With `CCN(CC)S(=O)(=O)c1ccc(Nc2ccc(C(=O)c3ccccc3)c(N)n2)cc1` [Cpd 26, 4-[(6-amino-5-benzoyl-2-pyridinyl)amino]-N,N-diethylbenzenesulfonamide], the IC50 against CDK1:Cyclin-B and at VEGF-R2 kinase was greater than 100 µM throughout.
For the compound “4-[[6-amino-5-(2,6-difluorobenzoyl)-2-pyridinyl]amino]benzonitrile [Cpd 15]”, the IC50 against CDK1:Cyclin-B is 0.95 µM; at VEGF-R2 kinase, greater than 10 µM.
For the compound `Nc1ccc(C(=O)c2cccs2)c(N)n1` [Cpd 5, (2,6-diamino-3-pyridinyl)-2-thienylmethanone], the IC50 against CDK1:Cyclin-B and at VEGF-R2 kinase was greater than 100 µM in each case.
In the case of `Nc1nc(Nc2ccccn2)ccc1C(=O)c1c(F)cccc1F` [Cpd 14, [2-amino-6-(2-pyridinylamino)-3-pyridinyl](2,6-difluorophenyl)methanone], the IC50 at VEGF-R2 kinase is greater than 100 µM.
Same read-out and setting: next, `Nc1nc(Nc2ccc(S(N)(=O)=O)cc2)ccc1C(=O)c1c(F)cccc1F` [Cpd 6, 4-[[6-amino-5-(2,6-difluorobenzoyl)-2-pyridinyl]amino]benzenesulfonamide]: greater than 10 µM.
For `Nc1ccc(Nc2ccc(C(=O)c3c(F)cccc3F)c(N)n2)cc1` [Cpd 17, [2-amino-6-[(4-aminophenyl)amino]-3-pyridinyl](2,6-difluorophenyl)methanone], on VEGF-R2 kinase, the 50% inhibitory concentration (IC50) is greater than 10 µM.
Turning to `Nc1ccc(C(=O)c2ccco2)c(N)n1` [Cpd 4, (2,6-diamino-3-pyridinyl)-2-furylmethanone], the IC50 against CDK1:Cyclin-B and at VEGF-R2 kinase was greater than 100 µM throughout.
As for `Nc1nc(Nc2ccc(C(=O)O)cc2)ccc1C(=O)c1c(F)cccc1F` [Cpd 16, 4-[[6-amino-5-(2,6-difluorobenzoyl)-2-pyridinyl]amino]benzoic acid], the IC50 on VEGF-R2 kinase is greater than 10 µM.
`Nc1nc(Nc2cccc(Cl)c2)ccc1C(=O)c1c(F)cccc1F` [Cpd 11, [2-amino-6-[(3-chlorophenyl)amino]-3-pyridinyl](2,6-difluorophenyl)methanone]: the values for the IC50 at CDK1:Cyclin-B and on VEGF-R2 kinase were 6.16 µM and greater than 100 µM, respectively.
Taken in the same sequence, the figures for `Nc1nc(Nc2ccccc2NC(=O)c2ccccc2)ccc1C(=O)c1c(F)cccc1F` [Cpd 22, N-[2-[[6-amino-5-(2,6-difluorobenzoyl)-2-pyridinyl]amino]phenyl]benzamide] were greater than 100 µM and greater than 100 µM.
For `Nc1nc(Nc2ccccc2)ccc1C(=O)c1c(F)cccc1F` [Cpd 13, [2-amino-6-(phenylamino)-3-pyridinyl](2,6-difluorophenyl)methanone], in that order: 21.7 µM and greater than 100 µM.
Taken in the same sequence, the figures for `Nc1nc(Nc2ccc(S(=O)(=O)N(Cc3ccccc3)Cc3ccccc3)cc2)ccc1C(=O)c1c(F)cccc1F` [Cpd 2b, 4-[[6-amino-5-(2,6-difluorobenzoyl)-2-pyridinyl]amino]-N,N-bis(phenylmethyl)benzenesulfonamide] were greater than 10 µM and greater than 10 µM.
For the compound `CCN(CC)S(=O)(=O)c1ccc(Nc2ccc(C(=O)c3ccco3)c(N)n2)cc1` [Cpd 28, 4-[[6-amino-5-(2-furanylcarbonyl)-2-pyridinyl]amino]-N,N-diethylbenzenesulfonamide], the IC50 at CDK1:Cyclin-B and on VEGF-R2 kinase was greater than 100 µM throughout.
As for `Nc1ccccc1Nc1ccc(C(=O)c2c(F)cccc2F)c(N)n1` [Cpd 20, [2-amino-6-[(2-aminophenyl)amino]-3-pyridinyl](2,6-difluorophenyl)methanone], on VEGF-R2 kinase, the IC50 is greater than 100 µM.
Same read-out and setting: the same measure for `Nc1ccc(C(=O)c2ccccc2)c(N)n1` [Cpd 3, (2,6-diamino-3-pyridinyl)phenylmethanone]: greater than 10 µM; for `CN(C)S(=O)(=O)c1ccc(Nc2ccc(C(=O)c3ccccc3F)c(N)n2)cc1` [Cpd 24, 4-[[6-amino-5-(2-fluorobenzoyl)-2-pyridinyl]amino]-N,N-dimethyl benzenesulfonamide]: greater than 100 µM.
As to `CN(C)S(=O)(=O)c1ccc(Nc2ccc(C(=O)c3c(F)cccc3F)c(N)n2)cc1` [Cpd 7, 4-[[6-amino-5-(2,6-difluorobenzoyl)-2-pyridinyl]amino]-N,N-dimethylbenzenesulfonamide], the IC50 against CDK1:Cyclin-B was 0.26 µM; on VEGF-R2 kinase it was greater than 10 µM.
For `Nc1nc(Nc2cccc([N+](=O)[O-])c2)ccc1C(=O)c1c(F)cccc1F` [Cpd 10, [2-amino-6-[(3-nitrophenyl)amino]-3-pyridinyl](2,6-difluorophenyl)methanone], the IC50 at VEGF-R2 kinase is greater than 100 µM.
Same read-out and setting: the same measure for `Nc1ccc(C(=O)c2ccccc2F)c(N)n1` [Cpd 2, (2,6-diamino-3-pyridinyl)(2-fluorophenyl)methanone]: greater than 10 µM.
Regarding `CN(C)S(=O)(=O)c1ccc(Nc2ccc(C(=O)c3ccco3)c(N)n2)cc1` [Cpd 27, 4-[[6-amino-5-(2-furanylcarbonyl)-2-pyridinyl]amino]-N,N-dimethyl benzenesulfonamide], the concentration for half-maximal inhibition (IC50) on VEGF-R2 kinase is greater than 100 µM.
For `CC(=O)Nc1ccccc1Nc1ccc(C(=O)c2c(F)cccc2F)c(N)n1` [Cpd 21, N-[2-[[6-amino-5-(2,6-difluorobenzoyl)-2-pyridinyl]amino]phenyl]acetamide], the concentration for half-maximal inhibition (IC50) against CDK1:Cyclin-B and at VEGF-R2 kinase was greater than 100 µM throughout.
